From ChEMBL document CHEMBL5724806, “Unraveling interindividual differences and functional consequences of gut microbial metabolism of immunosuppressants” (2024)

Assays:
Assay type in all cases: ADME
[1] = The drug is tested on Ruminococcus gnavus strain: ATCC29149 for biotransformation under anaerobic condition. The drug concentrations were measured over 6 timepoints collected between 0 and 12 hours of incubation by liquid-chromatography-coupled mass spectrometry (LC–MS); set-up: dose 5 uM, timepoint 0, 1.5, 3, 6, 9, 12 hours; conditions: mediterraneibacter gnavus, 5 µM
[2] = (§1) The drug is tested on the gut metagenome community of A-04 with ENA study accession number: PRJEB31790 for biotransformation under microaerobic condition. The drug concentrations were measured over 7 timepoints collected between 0 and 12 hours of incubation by liquid-chromatography-coupled mass spectrometry (LC–MS); set-up: dose 5 uM, timepoint 0, 0.75, 1.5, 3, 6, 9, 12 hours; conditions: 5 µM
[3] = The drug is tested on Escherichia coli strain: DSM27469 for biotransformation under anaerobic condition. The drug concentrations were measured over 6 timepoints collected between 0 and 12 hours of incubation by liquid-chromatography-coupled mass spectrometry (LC–MS); set-up: dose 5 uM, timepoint 0, 1.5, 3, 6, 9, 12 hours; conditions: 5 µM
[4] = The drug is tested on Bacteroides stercoris strain: HM 1036 for biotransformation under anaerobic condition. The drug concentrations were measured over 6 timepoints collected between 0 and 12 hours of incubation by liquid-chromatography-coupled mass spectrometry (LC–MS); set-up: dose 5 uM, timepoint 0, 1.5, 3, 6, 9, 12 hours; conditions: 5 µM
[5] = The drug is tested on Clostridium bolteae strain: DSM15670 for biotransformation under anaerobic condition. The drug concentrations were measured over 6 timepoints collected between 0 and 12 hours of incubation by liquid-chromatography-coupled mass spectrometry (LC–MS); set-up: dose 5 uM, timepoint 0, 1.5, 3, 6, 9, 12 hours; conditions: enterocloster bolteae, 5 µM
[6] = The drug is tested on Enterococcus faecalis strain: ATCC29212 for biotransformation under microaerobic condition. The drug concentrations were measured over 6 timepoints collected between 0 and 12 hours of incubation by liquid-chromatography-coupled mass spectrometry (LC–MS); set-up: dose 5 uM, timepoint 0, 1.5, 3, 6, 9, 12 hours; conditions: 5 µM
[7] = The drug is tested on Bifidobacterium longum strain: DSM20088 for biotransformation under anaerobic condition. The drug concentrations were measured over 6 timepoints collected between 0 and 12 hours of incubation by liquid-chromatography-coupled mass spectrometry (LC–MS); set-up: dose 5 uM, timepoint 0, 1.5, 3, 6, 9, 12 hours; conditions: 5 µM
[8] = as §1, with “A-02” for “A-04”; set-up: dose 5 uM, timepoint 0, 0.75, 1.5, 3, 6, 9, 12 hours; conditions: 5 µM
[9] = The drug is tested on Bacteroides ovatus strain: ATCC 8483 for biotransformation under anaerobic condition. The drug concentrations were measured over 6 timepoints collected between 0 and 12 hours of incubation by liquid-chromatography-coupled mass spectrometry (LC–MS); set-up: dose 5 uM, timepoint 0, 1.5, 3, 6, 9, 12 hours; conditions: 5 µM
[10] = as §1, with “P-03” for “A-04”, “anaerobic” for “microaerobic”; set-up: dose 5 uM, timepoint 0, 0.75, 1.5, 3, 6, 9, 12 hours; conditions: 5 µM
[11] = as §1, with “A-08” for “A-04”, “anaerobic” for “microaerobic”; set-up: dose 5 uM, timepoint 0, 0.75, 1.5, 3, 6, 9, 12 hours; conditions: 5 µM
[12] = The drug is tested on Roseburia intestinalis strain: DSM14610 for biotransformation under anaerobic condition. The drug concentrations were measured over 6 timepoints collected between 0 and 12 hours of incubation by liquid-chromatography-coupled mass spectrometry (LC–MS); set-up: dose 5 uM, timepoint 0, 1.5, 3, 6, 9, 12 hours; conditions: 5 µM
[13] = The drug is tested on Gemella morbillorum strain: DSM20572 for biotransformation under microaerobic condition. The drug concentrations were measured over 6 timepoints collected between 0 and 12 hours of incubation by liquid-chromatography-coupled mass spectrometry (LC–MS); set-up: dose 5 uM, timepoint 0, 1.5, 3, 6, 9, 12 hours; conditions: 5 µM
[14] = as §1, with “T-04” for “A-04”; set-up: dose 5 uM, timepoint 0, 0.75, 1.5, 3, 6, 9, 12 hours; conditions: 5 µM
[15] = The drug is tested on Bacteroides vulgatus strain: DSM1447 for biotransformation under anaerobic condition. The drug concentrations were measured over 6 timepoints collected between 0 and 12 hours of incubation by liquid-chromatography-coupled mass spectrometry (LC–MS); set-up: dose 5 uM, timepoint 0, 1.5, 3, 6, 9, 12 hours; conditions: phocaeicola vulgatus, 5 µM
[16] = The drug is tested on Bacteroides thetaiotaomicron strain: DSM2079 for biotransformation under anaerobic condition. The drug concentrations were measured over 6 timepoints collected between 0 and 12 hours of incubation by liquid-chromatography-coupled mass spectrometry (LC–MS); set-up: dose 5 uM, timepoint 0, 1.5, 3, 6, 9, 12 hours; conditions: 5 µM
[17] = The drug is tested on Actinomyces naeslundi strain: DSM43013 for biotransformation under anaerobic condition. The drug concentrations were measured over 6 timepoints collected between 0 and 12 hours of incubation by liquid-chromatography-coupled mass spectrometry (LC–MS); set-up: dose 5 uM, timepoint 0, 1.5, 3, 6, 9, 12 hours; conditions: actinomyces naeslundii, 5 µM
[18] = as §1, with “T-01” for “A-04”, “anaerobic” for “microaerobic”; set-up: dose 5 uM, timepoint 0, 0.75, 1.5, 3, 6, 9, 12 hours; conditions: 5 µM
[19] = The drug is tested on Collinsella aerofaciens strain: DSM3979 for biotransformation under anaerobic condition. The drug concentrations were measured over 6 timepoints collected between 0 and 12 hours of incubation by liquid-chromatography-coupled mass spectrometry (LC–MS); set-up: dose 5 uM, timepoint 0, 1.5, 3, 6, 9, 12 hours; conditions: 5 µM
[20] = The drug is tested on Bifidobacterium longum strain: DSM20088 for biotransformation under microaerobic condition. The drug concentrations were measured over 6 timepoints collected between 0 and 12 hours of incubation by liquid-chromatography-coupled mass spectrometry (LC–MS); set-up: dose 5 uM, timepoint 0, 1.5, 3, 6, 9, 12 hours; conditions: 5 µM
[21] = The drug is tested on Coprococcus comes strain: ATCC27758 for biotransformation under anaerobic condition. The drug concentrations were measured over 6 timepoints collected between 0 and 12 hours of incubation by liquid-chromatography-coupled mass spectrometry (LC–MS); set-up: dose 5 uM, timepoint 0, 1.5, 3, 6, 9, 12 hours; conditions: 5 µM
[22] = The drug is tested on Streptococcus mitis strain: DSM12643 for biotransformation under anaerobic condition. The drug concentrations were measured over 6 timepoints collected between 0 and 12 hours of incubation by liquid-chromatography-coupled mass spectrometry (LC–MS); set-up: dose 5 uM, timepoint 0, 1.5, 3, 6, 9, 12 hours; conditions: 5 µM
[23] = as §1, with “A-03” for “A-04”, “anaerobic” for “microaerobic”; set-up: dose 5 uM, timepoint 0, 0.75, 1.5, 3, 6, 9, 12 hours; conditions: 5 µM
[24] = as §1, with “P-02” for “A-04”; set-up: dose 5 uM, timepoint 0, 0.75, 1.5, 3, 6, 9, 12 hours; conditions: 5 µM
[25] = as §1, with “T-01” for “A-04”; set-up: dose 5 uM, timepoint 0, 0.75, 1.5, 3, 6, 9, 12 hours; conditions: 5 µM
[26] = The drug is tested on Odoribacter splanchnicus strain: DSM20712 for biotransformation under anaerobic condition. The drug concentrations were measured over 6 timepoints collected between 0 and 12 hours of incubation by liquid-chromatography-coupled mass spectrometry (LC–MS); set-up: dose 5 uM, timepoint 0, 1.5, 3, 6, 9, 12 hours; conditions: 5 µM
[27] = as §1, with “anaerobic” for “microaerobic”; set-up: dose 5 uM, timepoint 0, 0.75, 1.5, 3, 6, 9, 12 hours; conditions: 5 µM
[28] = The drug is tested on Alloscardovia omnicolens strain: DSM21503 for biotransformation under microaerobic condition. The drug concentrations were measured over 6 timepoints collected between 0 and 12 hours of incubation by liquid-chromatography-coupled mass spectrometry (LC–MS); set-up: dose 5 uM, timepoint 0, 1.5, 3, 6, 9, 12 hours; conditions: 5 µM
[29] = as §1, with “T-03” for “A-04”; set-up: dose 5 uM, timepoint 0, 0.75, 1.5, 3, 6, 9, 12 hours; conditions: 5 µM
[30] = as §1, with “A-07” for “A-04”; set-up: dose 5 uM, timepoint 0, 0.75, 1.5, 3, 6, 9, 12 hours; conditions: 5 µM

Structure (SMILES)	Bacterial Biotransformation [1]	Bacterial Biotransformation [2]	Bacterial Biotransformation [3]	Bacterial Biotransformation [4]	Bacterial Biotransformation [5]	Bacterial Biotransformation [6]	Bacterial Biotransformation [7]	Bacterial Biotransformation [8]	Bacterial Biotransformation [9]	Bacterial Biotransformation [10]	Bacterial Biotransformation [11]	Bacterial Biotransformation [12]	Bacterial Biotransformation [13]	Bacterial Biotransformation [14]	Bacterial Biotransformation [15]	Bacterial Biotransformation [16]	Bacterial Biotransformation [17]	Bacterial Biotransformation [18]	Bacterial Biotransformation [19]	Bacterial Biotransformation [20]	other results
C[C@@H](NCCCc1cccc(C(F)(F)F)c1)c1cccc2ccccc12	Compound NOT metabolized	Compound NOT metabolized	Compound NOT metabolized	Compound NOT metabolized	Compound NOT metabolized	Compound NOT metabolized	Compound NOT metabolized	Compound NOT metabolized	Compound NOT metabolized	Compound NOT metabolized	Compound NOT metabolized	Compound NOT metabolized	Compound NOT metabolized	Compound NOT metabolized	Compound NOT metabolized	Compound NOT metabolized	Compound NOT metabolized	Compound metabolized	Compound NOT metabolized	Compound NOT metabolized	Bacterial Biotransformation [21]: Compound NOT metabolized; Bacterial Biotransformation [22]: Compound NOT metabolized; Bacterial Biotransformation [23]: Compound NOT metabolized; Bacterial Biotransformation [24]: Compound NOT metabolized; Bacterial Biotransformation [25]: Compound metabolized; Bacterial Biotransformation [26]: Compound NOT metabolized; Bacterial Biotransformation [27]: Compound NOT metabolized; Bacterial Biotransformation [28]: Compound NOT metabolized; Bacterial Biotransformation [29]: Compound NOT metabolized; Bacterial Biotransformation [30]: Compound NOT metabolized
C[C@]12CCC(=O)C=C1CC[C@@H]1[C@@H]2[C@@H](O)C[C@@]2(C)[C@H]1CC[C@]2(O)C(=O)CO [HYDROCORTISONE]	Compound metabolized	Compound metabolized	Compound NOT metabolized	Compound NOT metabolized	Compound metabolized	Compound NOT metabolized	Compound NOT metabolized	Compound metabolized	Compound NOT metabolized	Compound metabolized	Compound metabolized	Compound NOT metabolized	Compound NOT metabolized	Compound NOT metabolized	Compound NOT metabolized	Compound NOT metabolized	Compound NOT metabolized	Compound metabolized	Compound NOT metabolized	Compound NOT metabolized	Bacterial Biotransformation [21]: Compound NOT metabolized; Bacterial Biotransformation [22]: Compound NOT metabolized; Bacterial Biotransformation [23]: Compound metabolized; Bacterial Biotransformation [24]: Compound NOT metabolized; Bacterial Biotransformation [25]: Compound metabolized; Bacterial Biotransformation [26]: Compound NOT metabolized; Bacterial Biotransformation [27]: Compound metabolized; Bacterial Biotransformation [28]: Compound NOT metabolized; Bacterial Biotransformation [29]: Compound NOT metabolized; Bacterial Biotransformation [30]: Compound metabolized
COc1c(C)c2c(c(O)c1C/C=C(\C)CCC(=O)O)C(=O)OC2 [MYCOPHENOLIC ACID]	Compound NOT metabolized	Compound NOT metabolized	Compound NOT metabolized	Compound NOT metabolized	Compound NOT metabolized	Compound NOT metabolized	Compound NOT metabolized	Compound NOT metabolized	Compound NOT metabolized	Compound NOT metabolized	Compound NOT metabolized	Compound NOT metabolized	Compound NOT metabolized	Compound NOT metabolized	Compound NOT metabolized	Compound NOT metabolized	Compound NOT metabolized	Compound NOT metabolized	Compound NOT metabolized	Compound NOT metabolized	Bacterial Biotransformation [21]: Compound NOT metabolized; Bacterial Biotransformation [22]: Compound NOT metabolized; Bacterial Biotransformation [23]: Compound NOT metabolized; Bacterial Biotransformation [24]: Compound NOT metabolized; Bacterial Biotransformation [25]: Compound NOT metabolized; Bacterial Biotransformation [26]: Compound NOT metabolized; Bacterial Biotransformation [27]: Compound NOT metabolized; Bacterial Biotransformation [28]: Compound NOT metabolized; Bacterial Biotransformation [29]: Compound NOT metabolized; Bacterial Biotransformation [30]: Compound NOT metabolized
